Broadly, the IC50 is the concentration that gives 50% inhibition. Lower therefore signals inhibition by little substance. For orientation: EC50 means the midpoint of the concentration-response curve. A higher EC50 goes with lower potency in that assay.

Where two headings read alike, the source gives them in different places.

The nature of assay [1]: DPPH-test (radical scavenging). The settings on record: for Quantity of Reduced DPPH after 20 h: DPPH 0.2 mM + test compound 0.2 mM in EtOH, equal volumes, 517 nm. From the text: 2,2-Diphenyl-1-picrylhydrazyl (DPPH)—is a stable N-centered chromophore radical with absorption peak λmax = 517 nm, while its reduced form is pale yellow. Its reduction can be monitored spectrophotometrically and is a well-known and convenient way of evaluating radical scavenging activity. […] This may be caused by the participation not of only the sterically hindered phenolic group in the process of radical scavenging, but salicylic phenolic group and probably hydrazide fragment as well. The abovementioned structural moieties participate in the coordination of tin atoms, and therefore are excluded from the mechanism of antioxidant action of complexes. […] The introduction of tin is known to lower the radical scavenging capacity of corresponding ligands and is estimated as referred previously. The only exception is complex 7, bearing two 2,6-di-tert-butylphenols pendants attached directly to the tin.
The activity of synthesized compounds as radical scavengers was estimated spectrophotometrically at λmax = 517 nm using stable radical 2,2-diphenyl-1-picrylhydrazyl (Sigma-Aldrich) according to the known procedure. The reaction mixture contained DPPH (0.75 mL, 0.2 mM) and a solution of the test compound in EtOH (0.75 mL, 0.2 mM), and was put in 1 cm glass cuvettes. The measurements were carried out for 20 h and the results were calculated using Microsoft Excel 2010. Antioxidant activity was expressed as the percentage of reduced DPPH according to the Equation (1):I (%) = ((A0 − A1)/A0) × 100(1) where A0 is the absorbance of the control 0.1 mM DPPH in EtOH, ε DPPH = 1.15·× 10^4, and A1 is the absorbance of the reaction mixture in the presence of the test compound.
For orientation: The DPPH test is a chemical assay of radical scavenging.

Assay [2] relates to superoxide radical anion O2−• (xanthine-xanthine oxidase system). The assay can be described thus: NBT-test, superoxide generated in the xanthine-xanthine oxidase system. The class given is biochemical. The settings on record: for I (NBT-Test): 0.006 mL of 5 mM compound in DMSO per 0.3 mL well, 600 s, 560 nm, negative = stimulation. The text has this:
Xanthine oxidase is molybdenum containing enzyme responsible for purine catabolism in the human organism. It is capable of xanthine oxidation, resulting in uric acid and superoxide radical anion as a side product. The latter one is well-known ROS, and the ability to neutralize it marks the compound as a perspective antioxidant. This is followed by the interaction of O2^−• and nitro-blue tetrazolium resulting in the cycle opening (Scheme 4), which is accompanied by the color change with λmax = 560 nm and can be monitored spectrophotometrically.
The influence of compounds on superoxide radical anion О2^−• generated in the enzymatic system xanthine-xanthine oxidase was estimated as the amount of nitro-blue tetrazolium (NBT) reduced to formazan. The assay was carried out in 96-well plates. The total volume of a single well was 0.3 mL and consisted of 0.27 mL of carbonate buffer (40 mM, pH 10.0) containing EDTA (0.1 mM), 0.006 mL of xanthine (10 mM) in carbonate buffer, 0.003 mL of 0.5% bovine serum albumin in water, 0.003 mL of NBT chloride (2.5 mM) in water, and 0.006 mL of a solution of the studied compound in DMSO (5 mM). Xanthine oxidase (0.012 mL, 0.004 units) in buffer was added to the mixture at rt to start the reaction and the absorption at λmax = 560 nm was recorded for 600 s. The control experiment was performed in the presence of 0.006 mL DMSO without a compound. All experiments were performed in triplicate.
Inhibition was expressed by the Equation (2):I (%) = (ν0/ν0′) × 100%,(2) where v0 and v0′ are initial rates of the enzymatic reaction in the presence and absence (control) of the compounds under study, respectively.
The initial rate (v0 and v0′) was calculated by the Equation (3):ν0 = ΔС/Δt = ΔA/(Δt × ε) = tgα/(Δt × ε),(3)
A1 is the absorbance in the presence of the testing compound at the end of the reaction (600 s), and A0 is the absorbance of the blank solution. ΔA is the difference between A1 and A0. All experiments were performed in triplicate.

Assay [3] concerns HCT116 (human colorectal carcinoma). The assay can be described thus: MTT-test HCT116. The class given is cell-based. The method, then:
(§1) Since the investigated compounds are designed as theranostic and cytostatic agents, their toxic impact was evaluated as a standard MTT-test. Cytotoxicity was studied on four cell lines, i.e.,—HCT116 (human colorectal carcinoma), MCF-7 (human breast cancer), A549 (human lung adenocarcinoma), and WI-38 (human fetal lung fibroblast). Obtained results appear to be unorthodox: as it is known, the introduction of an organotin moiety tends to noticeably increase compounds’ toxicity and more lipophilic ones do it better, but in the presented data pattern turns vice versa (Table 3).
(§2) HCT-116 (colon carcinoma), MCF-7 (breast adenocarcinoma), A-549 (lung adenocarcinoma) cell lines, and WI-38 (cell line composed of fibroblasts) were derived from The European Collection of Authenticated Cell Cultures (ECACC, Salisbury, UK), cultured in DMEM medium (Gibco™, Dublin, Ireland) supplemented with 10% fetal bovine serum (Gibco™, Brasilia, Brazil). The cells were cultured in an incubator at 37 °C in a humidified 5% CO2 atmosphere and subcultured two times a week.
(§3) The toxicity of compounds was studied on cultured cell lines according to standard MTT protocol.

For assay [4], the system named is MCF-7 (human breast cancer). The assay can be described thus: MTT-test MCF-7. The class given is cell-based. The method, then: as §1, §2, §3
For orientation: Formazan colour is commonly taken as a measure of viable cells.

For assay [5], the system named is A549 (human lung adenocarcinoma). The assay can be described thus: MTT-test A549. The class given is cell-based. The method, then: as §1, §2, §3
Assay [6] relates to WI-38 (human fetal lung fibroblast). The assay can be described thus: MTT-test WI-38. The class given is cell-based. The method, then: as §1, §2, §3

`CC(C)(C)c1cc(C2=NN=Cc3ccccc3[O][Sn]([CH3])([CH3])[O]2)cc(C(C)(C)C)c1O` [Compound 2, Me2SnL]: the “Quantity of Reduced DPPH after 20 h” value in assay [1] is recorded as 35.2 ± 1.9%. In addition, the “I (NBT-Test)” value in assay [2] was found to be 6.3 ± 1.8%. Also, the IC50 was 2.4 ± 0.8 µM in assay [3], 5.2 ± 1 µM in assay [4], 2.2 ± 0.7 µM in assay [5] and 9.5 ± 3.1 µM in assay [6].

Take `C[CH2][Sn]1([CH2]C)[O]C(c2cc(C(C)(C)C)c(O)c(C(C)(C)C)c2)=NN=Cc2ccccc2[O]1` [Compound 3, Et2SnL]: the “Quantity of Reduced DPPH after 20 h” value in assay [1] is reported as 41.3 ± 2.1%. In addition, the “I (NBT-Test)” value in assay [2] worked out at 7.3 ± 2.0%. The IC50 in assay [3] is 1.4 ± 0.5 µM; in assay [4] it was 3.7 ± 0.5 µM; in assay [5] it was 1.5 ± 0.5 µM; in assay [6] it was 5.8 ± 1.5 µM.

For `CC(C)(C)c1cc(C2=NN=Cc3ccccc3[O][Sn]([c]3cc(C(C)(C)C)c(O)c(C(C)(C)C)c3)([c]3cc(C(C)(C)C)c(O)c(C(C)(C)C)c3)[O]2)cc(C(C)(C)C)c1O` [Compound 7, (2,6-Di-tert-butylphenol)2SnL], the EC50 in assay [1] amounted to 12.8 µM. The “O2−• scavenging in NBT-test” value in assay [2] is “stimulate O2^−· formation instead of inhibiting it”. For the same molecule, the “I (NBT-Test)” value in assay [2] was −40.5 ± 4.2%. Besides, the IC50 in assay [3] turned out to be 20.5 ± 6.4 µM; in assay [4], 32.7 ± 9.5 µM; in assay [5], 31.9 ± 5.7 µM; in assay [6] it was 10.6 ± 3.5 µM.

As for `CC(C)(C)c1cc(C2=NN=Cc3ccccc3[O][Sn]([C](C)(C)C)([C](C)(C)C)[O]2)cc(C(C)(C)C)c1O` [Compound 5, Bu^t2SnL], the “Quantity of Reduced DPPH after 20 h” value in assay [1] is reported as 26.5 ± 1.7%. Besides, in assay [2], the “I (NBT-Test)” value stood at 5.9 ± 1.5%. Also, the IC50 in assay [3] came out at 34.3 ± 14 µM; in assay [4], 50.4 ± 12.6 µM; in assay [5], 43 ± 10 µM; in assay [6], 26.3 ± 11.3 µM.

As for `CCC[CH2][Sn]1([CH2]CCC)[O]C(c2cc(C(C)(C)C)c(O)c(C(C)(C)C)c2)=NN=Cc2ccccc2[O]1` [Compound 4, Bu2SnL], the “Quantity of Reduced DPPH after 20 h” value in assay [1] came to 50.5 ± 2.8%. Besides, the “I (NBT-Test)” value in assay [2] is recorded as −4.6 ± 1.2%. In addition, the IC50 was found to be 10 ± 2.3 µM in assay [3], 1.01 ± 0.4 µM in assay [4], 14.5 ± 4.5 µM in assay [5] and 10.8 ± 3.5 µM in assay [6].

On to `CC(C)(C)c1cc(C2=NN=Cc3ccccc3[O][Sn]([c]3ccccc3)([c]3ccccc3)[O]2)cc(C(C)(C)C)c1O` [Compound 6, Ph2SnL], for which the “Quantity of Reduced DPPH after 20 h” value in assay [1] was found to be 47.4 ± 2.7%. In assay [2], the “O2−• scavenging in NBT-test” value is on record as “stimulate O2^−· formation instead of inhibiting it”. The “I (NBT-Test)” value in assay [2] is given as −28.0 ± 3.6%. Moreover, the IC50 stood at 20 ± 11 µM in assay [3], 26.3 ± 3.5 µM in assay [4], 20.2 ± 4 µM in assay [5] and 52.6 ± 14.6 µM in assay [6].

Regarding `CC(C)(C)c1cc(C(=O)N/N=C/c2ccccc2O)cc(C(C)(C)C)c1O` [Compound 1, Di-tert-butyl-4-hydroxy-N′-(2-hydroxybenzylidene)-benzohydrazine], the EC50 in assay [1] is 163 µM. The “I (NBT-Test)” value in assay [2] amounted to 0.5 ± 0.1%. In addition, the IC50 in assay [3] (Homo sapiens, HCT-116) was found to be 1.7 ± 0.4 µM; in assay [4] (Homo sapiens, MCF7), 4.7 ± 0.8 µM; in assay [5] (Homo sapiens, A549), 2.2 ± 0.4 µM; in assay [6] (Homo sapiens, WI-38), 6.6 ± 1.2 µM.
